Test [1] has as its target Rabbit Reticulocyte Lysate (eukaryotic protein synthesis). Kind of test: Rabbit reticulocyte lysate luciferase assay (inhibition of eukaryotic protein synthesis). The test is classed as biochemical. The settings on record: % inhibition @ 1 μM, read-out: Rabbit reticulocyte IC50 (μM/% inhib.). In outline: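 Nuclease-treated rabbit reticulocyte lysate translating luciferase control RNA, with complete amino acids, was incubated at 30° C. for 90 minutes with 2-fold serial compound dilutions. Luminescence was measured after adding luciferase reagent. % inhibition was relative to water controls, with no-RNA wells as background.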

Test [2] has as its system E. coli S30 extract (bacterial protein synthesis). The test can be described thus: E. coli S30 extract coupled transcription-translation luciferase assay (inhibition of bacterial protein synthesis). The test is classed as biochemical. The settings on record: % inhibition @ 1 μM, read-out: S30 IC50 (μM/% inhib.). In outline: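 Cell-free coupled transcription-translation in E. coli S30 circular-DNA extract, with pBESTluc plasmid as template and complete amino acid mix. Eight 2-fold compound dilutions were incubated with the extract 1 h at 37 °C, chilled, then luciferase luminescence was read. % inhibition was taken relative to no-inhibitor wells; no-DNA wells gave background.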

The test system of another test is E. coli (Ec). The test can be described thus: Broth microdilution minimum inhibitory concentration (MIC). Particulars: Escherichia coli, E. coli; growth medium with sodium bicarbonate; read-out: E. coli + bicarb MIC. The class given is cell-based. A digest of the protocol:
(§1)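 CLSI broth microdilution with 8 two-fold compound dilutions in CAMHB, or CAMHB plus sodium bicarbonate (6.25 or 25 mM final) or heat-inactivated human serum (0–50%). Inoculum 5×10^4 CFU/well from 0.5 McFarland cultures grown at 35±2° C; tested in triplicate.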
A general note: In broth dilution the organism is exposed to a series of concentrations in liquid medium.

The test system of the next test is S. aureus (Sa). The test is described as above. The test is classed as cell-based. Particulars: Staphylococcus aureus, S. aureus; growth medium with sodium bicarbonate; read-out: Sa + bicarb MIC. A digest of the protocol: as §1
The next test deals with P. aeruginosa (Pa). Described as above. Particulars: Pseudomonas aeruginosa, P. aeruginosa; growth medium with sodium bicarbonate; read-out: Pa MIC + bicarb. The class given is cell-based. In outline: as §1
Another test has as its system E. faecalis (Ef). The test is described as above. The class given is cell-based. Particulars: Enterococcus faecalis, E. faecalis; growth medium with sodium bicarbonate; read-out: Ef + bicarb MIC. In outline: as §1
The test system of the next test is A. baumannii (Ab). Described as above. The test is classed as cell-based. The settings on record: Acinetobacter baumannii; A. baumannii; growth medium with sodium bicarbonate; read-out: Ab + bicarb MIC. In outline:
as §1

The structures appear in SMILES notation.

The term MIC denotes the lowest concentration found to suppress growth. As for `CC(C)(N)C(=O)N1CCN(C(=O)Nc2ccn(-c3ccc(CN4CC(N5CC(N)C5)C4)cc3)c(=O)n2)CC1` [Compound 380], the IC50 in test [1] is above 1 µM; in test [2] it was below 0.5 µM. The minimal inhibitory concentration (MIC) with E. coli (Ec) is below 8 µg/mL; in the test with S. aureus (Sa), below 8 µg/mL; with P. aeruginosa (Pa) it was above 32 µg/mL; in the test with E. faecalis (Ef), 8 to 32 µg/mL; in the test with A. baumannii (Ab) it was above 32 µg/mL.

On to `CC(Cc1ccc(-n2ccc(NC(=O)N3CCN(C(=O)C(C)(C)N)CC3)nc2=O)cc1)N1CC[C@@H](CN)C1` (some centres unmarked) [Compound 382], for which the IC50 in test [1] is above 1 µM; in test [2], below 0.5 µM. The MIC in the test on E. coli (Ec) was below 8 µg/mL; in the test on S. aureus (Sa), below 8 µg/mL; with P. aeruginosa (Pa) it was 8 to 32 µg/mL; with E. faecalis (Ef), below 8 µg/mL; with A. baumannii (Ab), above 32 µg/mL.

Values taken from patent US12503452B2 (Curza Global, LLC, priority 2019, dated 2025).
